Measurements reported in PubChem BioAssay AID743410 (Sanford-Burnham Center for Chemical Genomics, 2014).

Tested on: RS11846 B cell chemotaxis to 7a,25-OHC, calcein fluorescence
Test: blockade of oxysterol-directed cell migration via EBI2 – chemotaxis, 7a,25-OHC, calcein fluorescence, dose response (AID 743410)

With `O=C(/C=C/c1ccc(Br)cc1)N1CCN(Cc2ccc(Cl)cc2)CC1` the IC50 was 6.24 nM.
